Data from the METLIN SMRT retention time set (Domingo-Almenara et al. 2019).

Experiment: gradient 5% acetonitrile 3 min, to 50% in 2 min, to 85% in 15 min, held 3 min, 100 µL/min
Details: column: Zorbax Extend-C18 2.1 x 50 mm; eluents: water / acetonitrile, 0.1% formic acid
Procedure, shortened: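 Standards, all pure, were combined into mixtures of ~100 molecules and run at 100 μL/min on a Zorbax Extend-C18 column (2.1 × 50 mm, 1.8 μm) with water and acetonitrile, each containing 0.1% formic acid. A coupled quadrupole time-of-flight mass spectrometer operated in positive and negative ionization mode. Retention time values come from computationally picked adduct peaks, each inspected manually.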

| Compound | RP-LC retention time [s] |
| --- | --- |
| O=C(CCc1ccccc1)N1CCN(c2nc(CN3CCOCC3)cs2)CC1 | 624 |
| CCOc1ccccc1C(=O)Nc1c(-c2ccc(F)cc2)nc2ccccn12 | 719 |
| CCOCCCNC(=O)C1CCN(C2=NS(=O)(=O)C(c3ccc(Cl)cc3)=C2C)CC1 | 780 |
| Cc1ccc(-c2ccc(-n3nc(C)c(S(=O)(=O)NCCN4CCOCC4)c3C)nn2)cc1C | 702 |
| Cc1nn(-c2ccccc2)c2ccn(CC(=O)N3CCN(c4ccc(Cl)cc4)CC3)c(=O)c12 | 948 |
| CC(C)n1cnc(S(=O)(=O)N2CCCC(C(=O)NCc3ccc(N(C)C)cc3)C2)c1 (stereo unspecified) | 597 |
| Cc1nnc2ccc(-c3cccc(NC(=O)C4CCN(S(C)(=O)=O)CC4)c3)nn12 | 605 |
| O=C(Nc1cccc(F)c1)C1CCCN(S(=O)(=O)c2c[nH]c(C(=O)N3CCCCCC3)c2)C1 (stereo unspecified) | 919 |
| Nn1nnc2ccccc21 | 651 |
| CC1CCN(C(=O)c2cc(S(=O)(=O)N(C)CC(=O)NC3CC3)cn2C)CC1 | 693 |
| CCOc1ccc(-n2nc(CO)c(C(=O)NC3CC3)n2)cc1 | 814 |
| Cc1cc(NCCCC(=O)NC2CCCCC2)n2nc(-c3cccnc3)nc2n1 | 646 |
| CC(C)CNC(=O)c1sc2ncccc2c1-n1cccc1 | 971 |
| O=C(Nc1ccc(C(=O)O)c(O)c1)c1cc2ccccc2c(=O)o1 | 770 |
| Cc1ccc(-c2cc3c(=O)n(Cc4nc(-c5ccc(F)cc5)no4)ncn3n2)c(C)c1 | 1220 |
| COc1ccc2c(c1)C1CC(C)(O2)N(C)C(=O)C1S(=O)(=O)c1ccccc1 (stereo unspecified) | 916 |
| COc1ccc(Cl)cc1NC(=O)Cc1nnc(-c2ccc3ncccc3c2)o1 | 797 |
| CC(COc1ccccc1)NC(C)C(O)c1ccc(O)cc1 (stereo unspecified) | 686 |
| CC(=O)c1ccc(Nc2c(C(=O)OC(C)C)cnc3nc(C)ccc23)cc1 | 616 |
| COc1cccc(S(=O)(=O)N2CCC(c3nc(C(=O)N4CCOCC4)c(C)o3)CC2)c1 | 794 |
| Cc1ccc(F)cc1NC(=O)Cc1nnc(-c2cnccn2)o1 | 683 |
| O=c1c2cc(-c3ccc(Br)cc3)nn2cnn1Cc1nc(-c2ccccc2)no1 | 1190 |

| Compound | RP-LC retention time [s] |
| --- | --- |
| COc1ccc2c(c1)C1(CCN(S(=O)(=O)c3cccc(C#N)c3)C1)C(=O)N2C (stereo unspecified) | 875 |
| Cc1ccc2c(c1)C(=O)NC1(CCN(C(=O)c3ccc(C(F)(F)F)cc3)CC1)N2C | 871 |
| CCOc1ccccc1CNC(=O)c1ccc2[nH]c3c(c2c1)CN(C(C)=O)CC3 | 649 |
| CCCn1c(=O)sc2cc(S(=O)(=O)N3CCC(C(=O)NC(C)C)CC3)ccc21 | 818 |
| COc1ccc2c(c1)C1(CCN(C(=O)NC3CCCCC3)C1)C(=O)N2 (stereo unspecified) | 703 |
| O=C(CN1C(=O)CCCc2cc(S(=O)(=O)N3CCCCCC3)ccc21)N1CCc2ccccc2C1 | 974 |
| CC1=C(c2ccc(C(C)C)cc2)S(=O)(=O)N=C1N1CCCN(C(=O)c2ccoc2)CC1 | 911 |
| CCOC(=O)C1=C(CN2CC(C)CC(C)C2)NC(=O)NC1c1ccc(Cl)cc1 (stereo unspecified) | 688 |
| Cc1c(C(=O)O)sc2nc(SCC(=O)Nc3ccccc3C(F)(F)F)[nH]c(=O)c12 | 669 |
| CN(C)C(=O)c1ccc2c(c1)N(CC(=O)NCc1ccc(Cl)cc1)C(=O)CO2 | 707 |
| CCN1C(=O)C(C)(C(=O)Nc2ccc(F)c(Cl)c2)Oc2cccnc21 (stereo unspecified) | 988 |
| CC(C)Cc1noc(C2(F)CCN(S(=O)(=O)c3ccc(C(C)(C)C)cc3)CC2)n1 | 601 |
| O=C(Nc1cccc(F)c1)c1n[nH]nc1Nc1cccc(F)c1 | 1050 |
| O=C(NCC(c1ccccc1)c1c[nH]c2ccccc12)NC1CCCCC1 (stereo unspecified) | 976 |
| CCOc1cccc(-c2noc(Cn3c(=O)n(-c4ccccc4C)c(=O)c4sccc43)n2)c1 | 1070 |
| CCN1CCCCc2cc(C(=O)NCC(N)=O)sc21 | 679 |
| COc1ccc(OC)c(CNC(=O)c2ccc(-c3cncnc3)nc2)c1 | 700 |
| O=C(Nc1ccc(Cl)cc1)N1CCc2[nH]cnc2C1c1ccncc1 (stereo unspecified) | 565 |
| Cc1ccc(-c2ncc(C(=O)NC(C)c3ccccn3)c(-c3ccncc3)n2)cc1 (stereo unspecified) | 685 |
| CC(=O)OC1CCN(C(=O)NC(C)(C)C)CC1 | 696 |
| Cc1ccc(S(=O)(=O)c2cnc(N3CCN(c4ccccc4Cl)CC3)nc2N)cc1C | 1280 |
| Cc1ccc(-c2nnc(C3CN(C(=O)C4(c5ccccc5)CC4)CC34CCOCC4)o2)cc1 (stereo unspecified) | 830 |

| Compound | RP-LC retention time [s] |
| --- | --- |
| COc1cccc(C(=O)N2CCC3(CC2)NC(=O)c2cc(C)ccc2N3C)c1 | 752 |
| CCCCOC(=O)c1ccc(Nc2ncnc(N)c2[N+](=O)[O-])cc1 | 930 |
| O=C(CN1C(=O)c2cccnc2Sc2ccccc21)NCCc1c[nH]c2ccc(Cl)cc12 | 817 |
| CC1CCN(c2cnn(CC(=O)Nc3cccc(C(C)C)c3)c(=O)c2Cl)CC1 | 1100 |
| CCCn1cc(C2=CCN(S(=O)(=O)c3cc(OC)ccc3OC)CC2)c2cccnc21 | 728 |
| Cc1cc(NC(=O)c2cnc3c(c2)c(=O)n(C)c(=O)n3-c2ccccc2)ccc1F | 942 |
| Cc1cc(C)n(Cc2nc(-c3ccc(NC(=O)Cc4ccc(Cl)cc4)cc3)oc2C)n1 | 997 |
| O=C(OCc1cccnc1)c1cn(-c2cccc(Cl)c2)c(=O)c2ccccc12 | 813 |
| COc1ccc(Cn2c(C)c(CNCc3cccnc3)c(C(=O)O)c2C)cc1 | 597 |
| COc1ccc(-c2csc(NC(=O)c3ccc(Cl)c(Cl)c3)n2)cc1 | 1140 |
| COc1ccc(NC(=O)N2CCC3(C2)C(=O)N(C)c2ccc(OC)cc23)cc1 (stereo unspecified) | 732 |
| COc1ccc(Cl)cc1N1CC(c2nc(-c3ccccc3)no2)CC1=O (stereo unspecified) | 973 |
| CCn1cc(S(=O)(=O)N2CCOc3ccc(NC(=O)C4CC4)cc3C2)cn1 | 734 |
| Cc1ccc(S(=O)(=O)N2CCC3(CC2)NCCN=C3NCc2ccc(C(F)(F)F)cc2)cc1 | 789 |
| O=C(NCC1(c2cccs2)CCOCC1)C(=O)Nc1cccnc1 | 600 |
| O=C(Cn1c(=O)c(CCC(=O)NC2CC2)nc2ccccc21)Nc1cccc(Br)c1 | 781 |
| COc1cc(OC)cc(C(=O)N2C[C@@H]3C[C@H](NC(=O)c4cccs4)[C@H]2C3)c1 | 660 |
| CCOc1ccc(C(=O)N2CCN(c3cc(-c4ccc(Cl)cc4)[nH]n3)CC2)cc1OCC | 916 |
| CN1c2c(Cl)cccc2C(=O)NC12CCN(C(=O)c1ccccc1)CC2 | 768 |
| Cn1cc(CN2CCC(C(=O)NCCN3CCN(c4ccccc4)CC3)CC2)c2ccccc21 | 571 |
| Cc1cccc(NC(=O)NC2CCN(c3ccc(F)cc3)C2=O)c1 (stereo unspecified) | 830 |
| O=C(Nc1ccc2nc3n(c(=O)c2c1)CCCC3)Nc1ccc(F)cc1F | 690 |

| Compound | RP-LC retention time [s] |
| --- | --- |
| CCCn1c(-c2cccc(C(=O)NC(C)c3ccc(C)cc3C)c2)nc2cccnc21 (stereo unspecified) | 955 |
| Oc1ccc2c3c1O[C@H]1c4oc5ccccc5c4C[C@@]4(O)[C@@H](C2)N(CC2CC2)CC[C@]314 | 673 |
| CN(CCc1noc(-c2ccc(C(=O)N3CCCC3)cc2)n1)C(=O)c1c(F)cccc1F | 784 |
| CCN1C(=O)c2cccnc2Sc2cc(C(=O)NCC(C)C)ccc21 | 748 |
| COc1ccc(OC)c(NC(=O)c2[nH]c3cc(C)sc3c2CN(C)C)c1 | 692 |
| O=C(c1cccc(OC(F)(F)F)c1)N1C[C@@H]2C[C@H]1C[C@@H]2NS(=O)(=O)c1ccccc1 | 887 |
| CCc1cccc(NC(=O)Cn2c(N)nc(COC)cc2=O)c1 | 650 |
| COc1ccc(C2Cn3cnc(C(=O)N4CCC(C(=O)NCC5CCCCC5)CC4)c3CO2)cc1 (stereo unspecified) | 821 |
| COc1ccc(-c2ccnn2-c2ccc(SCc3ccccc3F)nn2)cc1 | 1310 |
| Cc1ccsc1C(=O)N1CCC(C2CCN(S(C)(=O)=O)CC2)C1 (stereo unspecified) | 626 |
| CC(=O)N1c2ccc(S(=O)(=O)N3CCCCC3)cc2CC1C(=O)NCCN(C)Cc1ccccc1 (stereo unspecified) | 676 |
| CSc1ccc(-c2nc3cnccn3c2Nc2ccc(C(=O)N3CCOCC3)cc2)cc1 | 708 |
| CCN1CCN(CCNC(=O)Cn2ccc3c(C)nn(CC)c3c2=O)CC1 | 557 |
| COCCNC(=O)c1cc(-c2ccccn2)nc2ccccc12 | 650 |
| Cc1ccc(C2NC(=O)N(CC(=O)Nc3ccccc3F)C3=C2C(=O)OC3)cc1 (stereo unspecified) | 786 |
| Fc1ccc(CN2CCC(N3CC4(CCCCC4)C3c3ccncc3)CC2)cc1F (stereo unspecified) | 604 |
| CC(C)Cn1cc(CCNC(=O)Nc2cccc(Br)c2)c2cccnc21 | 904 |
| CN1Cc2ccccc2-n2ccnc2C12CCN(C(=O)c1cccc(F)c1)CC2 | 614 |
| Cc1cc2nc(C(=O)OC(C)C)c(N3CCN(c4ccccn4)CC3)nc2cc1C | 791 |
| O=C(Nc1cc(F)ccc1F)c1cc2sccc2n1Cc1ccc(F)cc1 | 1200 |
